Key:
Type in all cases: biochemical
[1] = biological target: T1, Monoamine oxidase B (MAO-B) (Homo sapiens, UniProt P27338); test: Monoamine oxidase B inhibitory efficacy (kynuramine fluorescence assay); settings: compound 0-200 μM; enzyme 2 mU/mL; kynuramine substrate; N.D. = Not Detected
T1 sequence (P27338 1-520): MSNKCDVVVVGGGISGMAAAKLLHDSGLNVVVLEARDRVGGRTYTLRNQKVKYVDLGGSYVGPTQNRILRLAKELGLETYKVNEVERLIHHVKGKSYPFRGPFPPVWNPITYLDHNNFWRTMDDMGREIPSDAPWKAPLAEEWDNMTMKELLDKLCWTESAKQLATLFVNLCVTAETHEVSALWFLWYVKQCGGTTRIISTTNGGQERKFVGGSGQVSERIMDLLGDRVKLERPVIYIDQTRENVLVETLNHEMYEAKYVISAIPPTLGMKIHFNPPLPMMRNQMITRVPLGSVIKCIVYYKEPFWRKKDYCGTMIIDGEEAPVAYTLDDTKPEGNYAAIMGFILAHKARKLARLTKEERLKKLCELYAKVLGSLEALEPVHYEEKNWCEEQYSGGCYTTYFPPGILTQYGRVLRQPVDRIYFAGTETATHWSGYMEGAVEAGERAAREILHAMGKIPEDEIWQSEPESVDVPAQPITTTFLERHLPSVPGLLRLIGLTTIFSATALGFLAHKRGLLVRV
Method: Samples were prepared by dilution with DMSO to give concentrations of 0, 2, 5, 10, 20, 50, 100, and 200 μM of the compound, and 5 μl was dispensed into a 96-well plate. 135 μl of potassium phosphate buffer (0.1 M, 7.4 pH) was dispensed into a 96-well plate. Monoamine oxidase B was prepared at 2 mU/mL, and 50 μl was added to the 96-well plate, mixed with the dispensed compound, and left for 20 minutes. The substrate, kynuramine solution, was prepared at 100 μM, then 10 μl was added to a 96-well plate and left for 10 min. The reaction was stopped by adding 75 μl of NaOH (2N). The enzyme activity was calculated by measuring the concentration of kynuramine degraded by the enzyme using a fluorometer under 310 nm (excitation)/380 nm (emission) conditions. For the fluorescence blank experiment, potassium phosphate buffer was added instead of monoamine oxidase B to correct the compound-induced fluorescence intensity values.

[2] = biological target: Acetylcholinesterase (AChE) (Homo sapiens, UniProt P22303); test: Acetylcholinesterase inhibitory efficacy (acetylthiocholine/DTNB absorbance assay)
Method: (§1) Acetylcholinesterase or butyrylcholinesterase was prepared at 50 mU/ml, 50 μl was added to a 96-well plate, mixed with the aliquoted compound, and left for 10 minutes. The substrate, acetylthiocoline 0.05 mg/mL or butyrylthiocoline 0.1 mg/ml, was prepared and 50 μl was added to a 96-well plate and left for 10 minutes. Dithionitrobenzoic acid (DTNB) was prepared at 0.3 mg/ml, then 50 μl was added to a 96-well plate and left for 10 minutes.

[3] = biological target: Butyrylcholinesterase (BuChE) (Homo sapiens, UniProt P06276); test: Butyrylcholinesterase inhibitory efficacy (butyrylthiocholine/DTNB absorbance assay); settings: compound 0-200 μM; enzyme 50 mU/ml; N.D. = Not Detected
Method: as §1

Sequence of Acetylcholinesterase (AChE) (P22303 32-614, species assumed): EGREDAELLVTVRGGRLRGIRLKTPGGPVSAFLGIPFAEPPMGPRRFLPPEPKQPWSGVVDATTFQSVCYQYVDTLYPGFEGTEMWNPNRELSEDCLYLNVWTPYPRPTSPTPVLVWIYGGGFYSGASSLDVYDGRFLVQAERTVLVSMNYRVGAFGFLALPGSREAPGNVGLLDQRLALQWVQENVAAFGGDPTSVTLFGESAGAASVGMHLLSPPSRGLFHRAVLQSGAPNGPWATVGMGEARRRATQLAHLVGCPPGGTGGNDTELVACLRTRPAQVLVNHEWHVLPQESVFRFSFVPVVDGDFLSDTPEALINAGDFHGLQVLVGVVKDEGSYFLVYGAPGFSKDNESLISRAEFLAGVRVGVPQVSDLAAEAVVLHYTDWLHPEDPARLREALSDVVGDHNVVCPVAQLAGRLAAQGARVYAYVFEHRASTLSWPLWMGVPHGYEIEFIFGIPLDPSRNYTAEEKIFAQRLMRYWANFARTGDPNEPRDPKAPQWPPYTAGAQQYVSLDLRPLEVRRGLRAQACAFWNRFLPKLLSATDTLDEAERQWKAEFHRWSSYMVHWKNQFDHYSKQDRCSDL
Sequence of Butyrylcholinesterase (BuChE) (P06276 29-602): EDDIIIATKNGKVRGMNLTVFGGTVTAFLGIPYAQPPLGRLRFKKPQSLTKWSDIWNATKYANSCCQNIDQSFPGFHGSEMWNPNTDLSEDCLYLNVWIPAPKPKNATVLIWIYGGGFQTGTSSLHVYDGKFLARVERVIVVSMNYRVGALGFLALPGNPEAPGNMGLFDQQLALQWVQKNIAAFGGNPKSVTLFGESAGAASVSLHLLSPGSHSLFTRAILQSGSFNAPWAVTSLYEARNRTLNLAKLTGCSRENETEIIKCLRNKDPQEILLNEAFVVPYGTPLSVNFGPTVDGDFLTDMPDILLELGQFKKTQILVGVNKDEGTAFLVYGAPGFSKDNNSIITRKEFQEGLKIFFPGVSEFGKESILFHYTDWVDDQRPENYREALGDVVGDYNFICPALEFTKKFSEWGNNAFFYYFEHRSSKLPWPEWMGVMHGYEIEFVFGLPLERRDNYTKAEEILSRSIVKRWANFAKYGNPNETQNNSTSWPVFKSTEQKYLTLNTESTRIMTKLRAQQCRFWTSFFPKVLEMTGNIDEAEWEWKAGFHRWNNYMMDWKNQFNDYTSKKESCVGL

CCCCCc1cc2c(c(O)c1C(=O)Nc1ccc(-c3ccc(F)cc3)cc1)C=CC(C)(CCC=C(C)C)O2 (stereo not drawn) [Compound 4w, N-(4′-fluoro-[1,1′-biphenyl]-4-yl)-5-hydroxy-2-methyl-2-(4-methylpent-3-en-1-yl)-7-pentyl-2H-chromene-6-carboxamide]
IC50 [1]: 7.1 µM
IC50 [2]: 13.7 µM

CCCCCc1cc2c(c(O)c1C(=O)NC1CC1)C=CC(C)(CCC=C(C)C)O2 (stereo not drawn) [Compound 4c, N-cyclopropyl-5-hydroxy-2-methyl-2-(4-methylpent-3-en-1-yl)-7-pentyl-2H-chromene-6-carboxamide]
IC50 [2]: 4.3 µM

CCCCCc1cc2c(c(O)c1C(=O)NC1CCCC1)C=CC(C)(CCC=C(C)C)O2 (stereo not drawn) [Compound 4e, N-cyclopentyl-5-hydroxy-2-methyl-2-(4-methylpent-3-en-1-yl)-7-pentyl-2H-chromene-6-carboxamide]
IC50 [2]: 0.4 µM
IC50 [3]: 0.4 µM

CCCCCc1cc2c(c(O)c1C(=O)N1CCc3ccccc3C1)C=CC(C)(CCC=C(C)C)O2 (stereo not drawn) [Compound 4ac, (3,4-dihydroisoquinolin-2(1H)-yl)(5-hydroxy-2-methyl-2-(4-methylpent-3-en-1-yl)-7-pentyl-2H-chromen-6-yl)methanone]
IC50 [1]: 137 µM
IC50 [2]: 2.1 µM

CCCCCc1cc2c(c(O)c1C(=O)NC1CCOCC1)C=CC(C)(CCC=C(C)C)O2 (stereo not drawn) [Compound 4af, 5-hydroxy-2-methyl-2-(4-methylpent-3-en-1-yl)-7-pentyl-N-(tetrahydro-2H-pyran-4-yl)-2H-chromene-6-carboxamide]
IC50 [1]: 194 µM
IC50 [2]: 46.1 µM

CCCCCc1cc2c(c(O)c1C(=O)NC(C)CC)C=CC(C)(CCC=C(C)C)O2 (stereo not drawn) [Compound 4v, N-(sec-butyl)-5-hydroxy-2-methyl-2-(4-methylpent-3-en-1-yl)-7-pentyl-2H-chromene-6-carboxamide]
IC50 [2]: 6.6 µM

CCCCCc1cc2c(c(O)c1C(=O)NCCS)C=CC(C)(CCC=C(C)C)O2 (stereo not drawn) [Compound 4y, 5-hydroxy-N-(2-mercaptoethyl)-2-methyl-2-(4-methylpent-3-en-1-yl)-7-pentyl-2H-chromene-6-carboxamide]
IC50 [2]: 6.2 µM

CCCCCc1cc2c(c(O)c1C(=O)Nc1ncc(C)s1)C=CC(C)(CCC=C(C)C)O2 (stereo not drawn) [Compound 4r, 5-hydroxy-2-methyl-2-(4-methylpent-3-en-1-yl)-N-(5-methylthiazol-2-yl)-7-pentyl-2H-chromene-6-carboxamide]
IC50 [1]: 19.1 µM
IC50 [2]: 1.1 µM

CCCCCc1cc2c(c(O)c1C(=O)NCC(CC)CCCC)C=CC(C)(CCC=C(C)C)O2 (stereo not drawn) [Compound 4j, N-(2-ethylhexyl)-5-hydroxy-2-methyl-2-(4-methylpent-3-en-1-yl)-7-pentyl-2H-chromene-6-carboxamide]
IC50 [1]: 43.3 µM
IC50 [2]: 1.3 µM

CCCCCc1cc2c(c(O)c1C(=O)NC1CCCCCC1)C=CC(C)(CCC=C(C)C)O2 (stereo not drawn) [Compound 4ab, N-cycloheptyl-5-hydroxy-2-methyl-2(4-methylpent-3en-1-yl)-7-pentyl-2H-chromene-6-carboxamide]
IC50 [2]: 2.6 µM

CCCCCc1cc2c(c(O)c1C(=O)Nc1ccc(Br)cc1)C=CC(C)(CCC=C(C)C)O2 (stereo not drawn) [Compound 4ad, N-(4-bromophenyl)-5-hydroxy-2-methyl-2-(4-methylpent-3-en-1-yl)-7-pentyl-2H-chromene-6-carboxamide]
IC50 [1]: 12 µM
IC50 [2]: < 0.5 µM

CCCCCc1cc2c(c(O)c1C(=O)NCCCc1ccccc1)C=CC(C)(CCC=C(C)C)O2 (stereo not drawn) [Compound 4n, 5-hydroxy-2-methyl-2-(4-methylpent-3-en-1-yl)-7-pentyl-N--(3phenylpropyl)-2H-chromene-6-carboxamide]
IC50 [1]: 19 µM
IC50 [2]: 1.2 µM

CCCCCc1cc2c(c(O)c1C(=O)N[C@H]1CCCN(C(=O)OC(C)(C)C)C1)C=CC(C)(CCC=C(C)C)O2 (stereo partly drawn) [Compound 4s, tert-butyl(3S)-3-(5-hydroxy-2-methyl-2-(4-methylpent-3-en-1-yl)-7-pentyl-2H-chromene-6-carboxamido)piperidine-1-carboxylate]
IC50 [1]: 15.5 µM
IC50 [2]: 52.2 µM

C=CCCCCCCCCCNC(=O)c1c(CCCCC)cc2c(c1O)C=CC(C)(CCC=C(C)C)O2 (stereo not drawn) [Compound 4i, 5-hydroxy-2-methyl-2-(4-methylpent-3-en-1-yl)-7-pentyl-N-(undec-10-en-1-1)-2H-chromene-6-carboxamide]
IC50 [1]: 66.8 µM
IC50 [2]: 0.3 µM

CCCCCc1cc2c(c(O)c1C(=O)NC1CCN(S(C)(=O)=O)CC1)C=CC(C)(CCC=C(C)C)O2 (stereo not drawn) [Compound 4o, 5-hydroxy-2-methyl-2-(4-methylpent-3-en-1-yl)-N-(1-(methylsulfonyl)piperidin-4-yl)-7-pentyl-2H-chromene-6-carboxamide]
IC50 [1]: 8.43 µM

CCCCCc1cc2c(c(O)c1C(=O)N1CCS(=O)(=O)CC1)C=CC(C)(CCC=C(C)C)O2 (stereo not drawn) [Compound 4l, (1,1-dioxidothiomorpholino)(5-hydroxy-2-methyl-2-(4-methylpent-3-en-1-yl)-7-pentyl-2H-chromen-6-yl)methanone]
IC50 [1]: 162 µM

CCCCCc1cc2c(c(O)c1C(=O)NC/C=C(\C)CCC=C(C)C)C=CC(C)(CCC=C(C)C)O2 (stereo not drawn) [Compound 4k, (E)-N-(3,7-dimethylocta-2,6-dien-1-yl)-5-hydroxy-2-methyl-2-(4-methylpent-3-en-1-yl)-7-pentyl-2H-chromene-6-carboxamide]
IC50 [1]: 59.3 µM
IC50 [2]: 1.3 µM

CCCCCc1cc2c(c(O)c1C(=O)NCCc1ccc(O)cc1)C=CC(C)(CCC=C(C)C)O2 (stereo not drawn) [Compound 4x, 5-hydroxy-N-(4-hydroxyphenethyl)-2-methyl-2-(4-methylpent-3-en-1-yl)-7-pentyl-2H-chromene-6-carboxamide]
IC50 [2]: 0.8 µM
IC50 [3]: 2.6 µM

CCCCCCCCCNC(=O)c1c(CCCCC)cc2c(c1O)C=CC(C)(CCC=C(C)C)O2 (stereo not drawn) [Compound 4g, 5-hydroxy-2-methyl-2-(4-methylpent-3-en-1-yl)-N-nonyl-7-pentyl-2H-chromene-6-carboxamide]
IC50 [1]: 111 µM
IC50 [2]: 0.5 µM

CCCCCc1cc2c(c(O)c1C(=O)NC1CCCCC1)C=CC(C)(CCC=C(C)C)O2 (stereo not drawn) [Compound 4f, N-cyclohexyl-5-hydroxy-2-methyl-2-(4-methylpent-3-en-1-yl)-7-pentyl-2H-chromene-6-carboxamide]
IC50 [2]: 1.2 µM

CCCCCc1cc2c(c(O)c1C(=O)NCCCC)C=CC(C)(CCC=C(C)C)O2 (stereo not drawn) [Compound 4d, N-butyl-5-hydroxy-2-methyl-2-(4-methylpent-3-en-1-yl)-7-pentyl-2H-chromene-6-carboxamide]
IC50 [2]: 1 µM

CCCCCc1cc2c(c(O)c1C(=O)Nc1ccc(C)cc1)C=CC(C)(CCC=C(C)C)O2 (stereo not drawn) [Compound 4t, 5-hydroxy-2-methyl-2-(4-methylpent-3-en-1-yl)-7-pentyl-N-(p-tolyl)-2H-chromene-6-carboxamide]
IC50 [2]: 47.7 µM

CCCCCCCCCCCCNC(=O)c1c(CCCCC)cc2c(c1O)C=CC(C)(CCC=C(C)C)O2 (stereo not drawn) [Compound 4h, N-dodecyl-5-hydroxy-2-methyl-2-(4-methylpent-3-en-1-yl)-7-pentyl-2H-chromene-6-carboxamide]
IC50 [2]: 2.3 µM

CCCCCc1cc2c(c(O)c1C(=O)NC(C)C)C=CC(C)(CCC=C(C)C)O2 (stereo not drawn) [Compound 4a, 5-hydroxy-N-isopropyl-2-methyl-2-(4-methylpent-3-en-1-yl)-7-pentyl-2H-chromene-6-carboxamide]
IC50 [2]: 1.3 µM

CCCCCc1cc2c(c(O)c1C(=O)NCc1cc(Br)cs1)C=CC(C)(CCC=C(C)C)O2 (stereo not drawn) [Compound 4p, N-((4-bromothiophen-2-yl)methyl)-5-hydroxy-2-methyl-2-(4-methylpent-3-en-1-yl)-7-pentyl-2H-chromene-6-carboxamide]
IC50 [2]: 0.6 µM

C#CCNC(=O)c1c(CCCCC)cc2c(c1O)C=CC(C)(CCC=C(C)C)O2 (stereo not drawn) [Compound 4m, 5-hydroxy-2-methyl-2-(4-methylpent-3-en-1-yl)-7-pentyl-N-(prop-2-yn-1-yl)-2H-chromene-6-carboxamide]
IC50 [1]: 79.7 µM
IC50 [2]: 3.6 µM

CCCCCc1cc2c(c(O)c1C(=O)N(C)C1CCCC1)C=CC(C)(CCC=C(C)C)O2 (stereo not drawn) [Compound 4ag, N-cyclopentyl-5-hydroxy-N,2-dimethyl-2-(4-methylpent-3-en-1-yl)-7-pentyl-2H-chromene-6-carboxamide]
IC50 [1]: 14.4 µM
IC50 [2]: 47.7 µM
